Where two headings read alike, the source gives them in different places. Some results are limits rather than exact numbers.

In assay [1] the target is T1, LasR (Pseudomonas aeruginosa, UniProt P25084).
T1 construct: expressed in transfected cells; host or cells: E. coli 5α (DH5α) with pJNL and pPROBE-PrsaL
T1 sequence (P25084 1-239): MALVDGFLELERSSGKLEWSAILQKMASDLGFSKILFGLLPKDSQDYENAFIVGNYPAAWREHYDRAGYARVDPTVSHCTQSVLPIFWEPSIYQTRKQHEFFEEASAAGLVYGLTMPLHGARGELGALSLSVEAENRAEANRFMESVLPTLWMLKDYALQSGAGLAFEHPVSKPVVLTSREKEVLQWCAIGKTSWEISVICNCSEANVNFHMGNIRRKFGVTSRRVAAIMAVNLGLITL
Briefly: cell-based. Also on record: species or system P. aeruginosa. The note with it: receptor expressed in E. coli (DH5α), arabinose-induced.

In assay [2] the target is T1, LasR. Nature of the assay: cell-based. The note with it: P. aeruginosa PAO-SC4 (pPROBE-PrsaL); mean ± SEM, n ≥ 3; read-out: EC50 LasR in native host.
The target of assay [3] is T2, RhlR (Pseudomonas aeruginosa, UniProt P54292).
T2 sequence (P54292 1-241): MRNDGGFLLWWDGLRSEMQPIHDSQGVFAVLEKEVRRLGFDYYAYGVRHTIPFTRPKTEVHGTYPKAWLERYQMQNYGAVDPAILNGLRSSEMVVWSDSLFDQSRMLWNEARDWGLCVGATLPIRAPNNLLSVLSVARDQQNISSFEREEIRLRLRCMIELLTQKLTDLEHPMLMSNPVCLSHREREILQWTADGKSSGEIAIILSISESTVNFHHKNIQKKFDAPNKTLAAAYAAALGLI
Nature of the assay: cell-based. Also on record: species or system P. aeruginosa. The note with it: rhlR overexpressed via pJNR in PAO-SC4; mean ± SEM, n ≥ 3; read-out: EC50 overexpression (RhlR).

A further assay deals with T3, LuxR (Aliivibrio fischeri, UniProt P12746).
T3 construct: endogenous in cells; host or cells: V. fischeri MJ215
T3 sequence (P12746 1-250): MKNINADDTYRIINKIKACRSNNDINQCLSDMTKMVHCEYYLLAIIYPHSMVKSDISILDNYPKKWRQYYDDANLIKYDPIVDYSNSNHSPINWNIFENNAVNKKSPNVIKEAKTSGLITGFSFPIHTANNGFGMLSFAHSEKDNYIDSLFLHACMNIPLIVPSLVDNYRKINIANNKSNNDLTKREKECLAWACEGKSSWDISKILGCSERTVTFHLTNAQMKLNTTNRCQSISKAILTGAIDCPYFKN
Nature of the assay: cell-based. The note with it: V. fischeri MJ215, luminescence; read-out: EC50 LuxR in native host.

In assay [4] the target is T4, QscR (Pseudomonas aeruginosa, UniProt G3XD77).
T4 construct: expressed in transfected cells; host or cells: E. coli 5α (DH5α) with pJNQ and pPROBE-PPA1897
T4 sequence (G3XD77 1-237): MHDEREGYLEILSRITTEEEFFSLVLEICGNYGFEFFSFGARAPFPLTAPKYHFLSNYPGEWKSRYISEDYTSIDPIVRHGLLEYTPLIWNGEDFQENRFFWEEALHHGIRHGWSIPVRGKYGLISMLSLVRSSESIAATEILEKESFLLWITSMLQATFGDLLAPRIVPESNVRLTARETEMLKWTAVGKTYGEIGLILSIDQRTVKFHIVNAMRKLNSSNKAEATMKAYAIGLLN
Nature of the assay: cell-based. The note with it: P. aeruginosa PAO-SC4 (pPROBE-PPA1897); read-out: EC50 QscR in native host.

For assay [5], the target named is T5, BtaR2 (Burkholderia thailandensis, UniProt Q2T5X2).
T5 sequence (Q2T5X2 1-234): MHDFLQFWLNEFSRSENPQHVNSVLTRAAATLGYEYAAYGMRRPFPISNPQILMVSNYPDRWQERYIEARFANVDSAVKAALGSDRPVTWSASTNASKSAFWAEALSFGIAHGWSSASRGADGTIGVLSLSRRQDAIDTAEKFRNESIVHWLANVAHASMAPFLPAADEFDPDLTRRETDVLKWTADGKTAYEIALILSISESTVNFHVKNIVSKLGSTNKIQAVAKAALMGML
Nature of the assay: cell-based. Also noted: species or system B. thailandensis.

For assay [6], the target named is T2, RhlR. Briefly: cell-based. The conditions noted are these: receptor expressed in E. coli (DH5α), arabinose-induced. The class given is cell-based, P. aeruginosa.
The target in assay [7] is T2, RhlR. The class given is cell-based. The conditions noted are these: at 1 mM; native P. aeruginosa reporter.
Assay [8] concerns the target T5, BtaR2. Briefly: cell-based. Also noted: species or system B. thailandensis. This is another data set of the same source.
Another assay has as its target T6, CviR (Chromobacterium violaceum, UniProt D3W065).
T6 construct: Violacein was used as a measure of CviR activity in C. violaceum (CV026); endogenous in cells; host or cells: C. violaceum CV026
Briefly: cell-based. The note with it: C. violaceum CV026, violacein; read-out: EC50 CviR in native host.

The target in another assay is T7, BtaR1 (Burkholderia thailandensis, UniProt Q2T543).
T7 sequence (Q2T543 1-239): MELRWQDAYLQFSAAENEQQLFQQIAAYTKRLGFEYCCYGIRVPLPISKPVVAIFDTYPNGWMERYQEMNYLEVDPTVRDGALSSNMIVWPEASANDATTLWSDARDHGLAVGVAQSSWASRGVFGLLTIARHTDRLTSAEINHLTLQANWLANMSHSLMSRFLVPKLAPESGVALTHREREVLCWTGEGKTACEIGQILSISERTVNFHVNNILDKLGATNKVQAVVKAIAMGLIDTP
Briefly: cell-based. Also on record: species or system B. thailandensis.

For assay [9], the target named is T4, QscR. Nature of the assay: cell-based. The note with it: receptor expressed in E. coli (DH5α), arabinose-induced. Also on record: species or system P. aeruginosa.

Regarding `CCCC(=O)N[C@H]1CCOC1=O` [C4-HSL, N-butyryl-L-homoserine lactone], the EC50 (usually the concentration needed to bring the measured effect to its halfway point) at LasR [1] was greater than 100 µM; on LasR [2], greater than 100 µM; at RhlR [3] it was 12 ± 3.1 µM; at LuxR it was greater than 100 µM; on QscR [4], greater than 100 µM; on BtaR2 [5] it was greater than 100 µM. The EC50 was 122 ± 17 µM on RhlR [6]; greater than 100 µM at BtaR2 [8]; 14.3 ± 3.8 µM on CviR; greater than 100 µM at BtaR1; greater than 100 µM on QscR [9]. On RhlR [7], the “saturation of RhlR activity” value was “not saturated”.

(Values after PMC6401477, “Quorum Sensing Signal Selectivity and the Potential for Interspecies Cross Talk” (mBio, 2019).)
